# Calls of active or inactive are those of the source. No cut-off for these calls is given here.
# What was measured:
# Mus musculus [1] = assay: In vivo PROTAC activity at CRBN/MNK1 in human MV4-11 cells xenografted in nude female NSG mouse assessed as induction of MNK1 degradation at 20 mg/kg, ip qd administrated for 16 days by Western blot analysis; assay type: functional, organism-based; conditions: time 16.0 day
# MOLM-13 = assay: Anti-proliferative activity against human MOLM-13 cells measured after 72 hrs by CCK8 assay; conditions: MOLM-13, 72 h
# MM1.S = assay: Anti-proliferative activity against human MM1.S cells measured after 120 hrs by CCK8 assay
# MV4-11 [2] = assay: Effect on MNK2 expression level in human MV4-11 cells at 300 nM incubated for 24 hrs by DIA-based quantitative proteomics analysis; assay type: functional, cell-based
# MV4-11 [3] = assay: Downregulation of SBNO2 expression level in human MV4-11 cells at 300 nM incubated for 24 hrs by DIA-based quantitative proteomics analysis; assay type: functional, cell-based
# MV4-11 [4] = assay: Effect on GSPT1 expression in human MV4-11 cells at 10 to 1000 nM incubated for 24 hrs by immunoblot analysis; assay type: functional, cell-based; conditions: dose 10-1000 nM
# MV4-11 [5] = assay: Effect on IKZF3 expression in human MV4-11 cells at 10 to 1000 nM incubated for 24 hrs by immunoblot analysis; assay type: functional, cell-based; conditions: dose 10-1000 nM
# MV4-11 [6] = assay: Upregulation of cell cycle regulation related protein expression in human MV4-11 cells by GO analysis; assay type: functional, cell-based
# MV4-11 [7] = assay: Upregulation of G2/M transition pathway related protein expression in human MV4-11 cells by GO analysis; assay type: functional, cell-based
# MV4-11 [8] = assay: Upregulation of PI3K-Akt pathway related protein expression in human MV4-11 cells by GO analysis; assay type: functional, cell-based
# MV4-11 [9] = assay: Upregulation of ubiquitin-mediated proteolysis pathway related protein expression in human MV4-11 cells by GO analysis; assay type: functional, cell-based
# MV4-11 [10] = assay: Upregulation of RNA transport pathways related protein expression in human MV4-11 cells by GO analysis; assay type: functional, cell-based
# MV4-11 [11] = assay: Upregulation of cell cycle signaling pathways related protein expression in human MV4-11 cells by KEGG analysis; assay type: functional, cell-based
# MV4-11 [12] = assay: Upregulation of ubiquitin-mediated proteolysis pathway related protein expression in human MV4-11 cells by KEGG analysis; assay type: functional, cell-based
# MV4-11 [13] = assay: Induction of apoptosis in human MV4-11 cells assessed as early apoptotic cells at 30 nM incubated for 24 hrs by Annexin V-FITC/PI dual staining based flow cytometric analysis (reference value: 3.42 %); assay type: functional
# MV4-11 [14] = assay: Induction of apoptosis in human MV4-11 cells assessed as late apoptotic cells at 30 nM incubated for 24 hrs by Annexin V-FITC/PI dual staining based flow cytometric analysis (reference value: 1.48 %); assay type: functional
# MV4-11 [15] = assay: Induction of apoptosis in human MV4-11 cells assessed as necrotic cells at 30 nM incubated for 24 hrs by Annexin V-FITC/PI dual staining based flow cytometric analysis (reference value: 0.16 %); assay type: functional
# MV4-11 [16] = assay: Induction of apoptosis in human MV4-11 cells assessed as early apoptotic cells at 100 nM incubated for 24 hrs by Annexin V-FITC/PI dual staining based flow cytometric analysis (reference value: 3.42 %); assay type: functional
# MV4-11 [17] = assay: Induction of apoptosis in human MV4-11 cells assessed as viable cells at 300 nM incubated for 24 hrs by Annexin V-FITC/PI dual staining based flow cytometric analysis (reference value: 94.9 %); assay type: functional; conditions: read-out: Activity
# MV4-11 [18] = assay: Induction of apoptosis in human MV4-11 cells assessed as necrotic cells at 300 nM incubated for 24 hrs by Annexin V-FITC/PI dual staining based flow cytometric analysis (reference value: 0.16 %); assay type: functional
# MV4-11 [19] = assay: Induction of cell cycle arrest in human MV4-11 cells assessed as decrease in accumulation of cells at S phase incubated for 24 hrs by PI staining based flow cytometric analysis; assay type: functional; conditions: dose 30-300 µM
# MV4-11 [20] = assay: Induction of cell cycle arrest in human MV4-11 cells assessed as decrease in accumulation of cells at G2 phase incubated for 24 hrs by PI staining based flow cytometric analysis; assay type: functional; conditions: dose 30-300 µM
# [21] = Tmax in male Sprague-Dawley rat at 5 mg/kg, ip measured up to 24 hrs by LC-MS analysis; assay type: ADME, organism-based; conditions: in vivo
# [22] = Half life in male Sprague-Dawley rat at 1 mg/kg, iv measured up to 24 hrs by LC-MS analysis; assay type: ADME, organism-based; conditions: in vivo
# [23] = Half life in male Sprague-Dawley rat at 20 mg/kg, po measured up to 24 hrs by LC-MS analysis; assay type: ADME, organism-based; conditions: in vivo
# MV4-11 [24] = assay: Antitumor activity against human MV4-11 cells xenografted in nude female NSG mouse assessed as tumor growth inhibition at 20 mg/kg, ip qd administrated for 16 days by caliper method relative to control; assay type: functional; conditions: MV4-11, 384 h, time 16 day, read-out: TGI
# [25] = Toxicity in nude female NSG mouse xenografted with human MV4-11 cells assessed as change in body weight at 20 mg/kg, ip qd administrated for 16 days; assay type: organism-based; conditions: in vivo, 384 h, time 16 day
# Mus musculus [26] = assay: In vivo induction of MNK2 degradation in human MV4-11 cells xenografted in nude female NSG mouse at 20 mg/kg, ip qd administrated for 16 days; assay type: functional, organism-based; conditions: time 16.0 day
# [27] = Hepatotoxicity in nude female NSG mouse xenografted with human MV4-11 cells assessed as change in serum ALT level at 20 mg/kg, ip qd administrated for 16 days; assay type: toxicity, organism-based; conditions: in vivo, 384 h, time 16 day
# [28] = Hepatotoxicity in nude female NSG mouse xenografted with human MV4-11 cells assessed as change in serum TBA level at 20 mg/kg, ip qd administrated for 16 days; assay type: toxicity, organism-based; conditions: in vivo, 384 h, time 16 day
# [29] = Toxicity in male ICR mouse assessed as histopathological change in liver at 100 mg/kg, ip measured after 14 days by hematoxylin and eosin staining based analysis; assay type: organism-based; conditions: in vivo, 336 h, time 14 day
# [30] = Toxicity in male ICR mouse assessed as histopathological change in spleen at 100 mg/kg, ip measured after 14 days by hematoxylin and eosin staining based analysis; assay type: organism-based; conditions: in vivo, 336 h, time 14 day
# [31] = Toxicity in male ICR mouse assessed as histopathological change in lung at 100 mg/kg, ip measured after 14 days by hematoxylin and eosin staining based analysis; assay type: organism-based; conditions: in vivo, 336 h, time 14 day
# [32] = Toxicity in male ICR mouse assessed as histopathological change in kidney at 100 mg/kg, ip measured after 14 days by hematoxylin and eosin staining based analysis; assay type: organism-based; conditions: in vivo, 336 h, time 14 day
# [33] = Toxicity in male ICR mouse assessed as change in serum BUN level at 100 mg/kg, ip measured after 14 days; assay type: organism-based; conditions: in vivo, 336 h, time 14 day
# [34] = Toxicity in male ICR mouse assessed as change in serum creatinine level at 100 mg/kg, ip measured after 14 days; assay type: organism-based; conditions: in vivo, 336 h, time 14 day
# [35] = Toxicity in nude female NSG mouse xenografted with human MV4-11 cells assessed as change in serum AST level at 20 mg/kg, ip qd administrated for 16 days; assay type: organism-based; conditions: in vivo, 384 h, time 16 day
# [36] = Toxicity in nude female NSG mouse xenografted with human MV4-11 cells assessed as change in serum uric acid level at 20 mg/kg, ip qd administrated for 16 days; assay type: organism-based; conditions: in vivo, 384 h, time 16 day
# [37] = Toxicity in nude female NSG mouse xenografted with human MV4-11 cells assessed as change in serum creatinine level at 20 mg/kg, ip qd administrated for 16 days; assay type: organism-based; conditions: in vivo, 384 h, time 16 day
smiles,measurement,setting,value
O=C1CCC(N2Cc3c(NC(=O)CCCCCC(=O)N4CCC(C(=O)Nc5ncc(-c6ccccc6)s5)CC4)cccc3C2=O)C(=O)N1 (centres undefined),Activity,Mus musculus [1],Active
same,IC50,MOLM-13,610 nM
same,IC50,MM1.S,240 nM
same,Activity,MV4-11 [2],No effect
same,Activity,MV4-11 [3],Active
same,Activity,MV4-11 [4],No effect
same,Activity,MV4-11 [5],No effect
same,Activity,MV4-11 [6],Active
same,Activity,MV4-11 [7],Active
same,Activity,MV4-11 [8],Active
same,Activity,MV4-11 [9],Active
same,Activity,MV4-11 [10],Active
same,Activity,MV4-11 [11],Active
same,Activity,MV4-11 [12],Active
same,Activity,MV4-11 [13],6.46%
same,Activity,MV4-11 [14],7.49%
same,Activity,MV4-11 [15],0.27%
same,Activity,MV4-11 [16],14.1%
same,viability at 0.3 µM,MV4-11 [17],28%
same,Activity,MV4-11 [18],1.36%
same,Activity,MV4-11 [19],Dose-dependent-effect
same,Activity,MV4-11 [20],Dose-dependent-effect
same,Tmax,[21],0.5 h
same,half-life,[22],4.3 h
same,half-life,[23],7.1 h
same,inhibition in vivo at 20 mg/kg,MV4-11 [24],> 90%
same,Activity,[25],Non-toxic
same,Activity,Mus musculus [26],inactive
same,Activity,[27],Non-toxic
same,Activity,[28],Non-toxic
same,Activity,[29],Non-toxic
same,Activity,[30],Non-toxic
same,Activity,[31],Non-toxic
same,Activity,[32],Non-toxic
same,Activity,[33],Non-toxic
same,Activity,[34],Non-toxic
same,Activity,[35],Non-toxic
same,Activity,[36],Non-toxic
same,Activity,[37],Non-toxic

# — ChEMBL document CHEMBL6177991, “Discovery of P11-2: A Potent First-in-Class MNK1-Targeting PROTAC Degrader for the Treatment of Cancer” (J Med Chem, 2025)
